Measurements: paper PMC9152706, “Identification of the target and mode of action for the prokaryotic nucleotide excision repair inhibitor ATBC” (Bioscience Reports, 2022)

Molecular target: T1, UvrA (Escherichia coli, UniProt P0A698)
T1 construct: full-length, C-terminal flexible linker, AviTag, TEV site and His tag; Ni-NTA purified from E. coli (BL21 delta-uvrA delta-uvrB used for expression); unlabelled; homodimer
T1 sequence (P0A698 1-940): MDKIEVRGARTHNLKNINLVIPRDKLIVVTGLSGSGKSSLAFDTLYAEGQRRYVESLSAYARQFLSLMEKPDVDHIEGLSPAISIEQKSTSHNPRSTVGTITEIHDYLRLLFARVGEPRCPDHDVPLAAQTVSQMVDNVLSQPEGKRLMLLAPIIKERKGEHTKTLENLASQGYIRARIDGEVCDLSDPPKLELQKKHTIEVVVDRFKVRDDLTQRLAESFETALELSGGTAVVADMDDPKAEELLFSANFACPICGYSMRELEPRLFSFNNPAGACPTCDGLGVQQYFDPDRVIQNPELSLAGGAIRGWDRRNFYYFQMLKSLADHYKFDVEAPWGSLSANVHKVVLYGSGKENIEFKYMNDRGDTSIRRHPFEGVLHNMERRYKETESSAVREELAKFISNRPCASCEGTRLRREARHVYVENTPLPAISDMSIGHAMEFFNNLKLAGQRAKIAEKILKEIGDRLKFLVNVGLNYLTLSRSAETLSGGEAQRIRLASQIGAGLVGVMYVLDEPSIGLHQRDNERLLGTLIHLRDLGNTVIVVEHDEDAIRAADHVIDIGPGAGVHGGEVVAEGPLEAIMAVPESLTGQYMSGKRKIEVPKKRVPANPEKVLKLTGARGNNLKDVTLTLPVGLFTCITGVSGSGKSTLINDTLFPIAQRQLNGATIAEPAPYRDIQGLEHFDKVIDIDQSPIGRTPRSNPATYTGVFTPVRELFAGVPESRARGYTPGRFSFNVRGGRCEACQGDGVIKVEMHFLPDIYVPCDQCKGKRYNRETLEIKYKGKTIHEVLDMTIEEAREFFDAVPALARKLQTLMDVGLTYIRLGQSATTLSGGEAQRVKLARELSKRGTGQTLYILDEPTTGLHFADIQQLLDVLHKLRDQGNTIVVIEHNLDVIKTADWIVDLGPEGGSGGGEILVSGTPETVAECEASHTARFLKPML
Experiment: NADH-linked ATPase assay (pyruvate kinase / lactate dehydrogenase)
Assay type: biochemical
Settings: 50 µM ATBC, 5 min preincubation; 1 mM ATP; 50 mM Tris-HCl pH 7.5, 50 mM KCl, 10 mM MgCl2; room temperature; poorly soluble, nominal concentration; ATPase site proposed from docking

Nc1nnc(-c2cc3c(ccc4ccccc43)oc2=O)s1 [ATBC, 2-(5-amino-1,3,4-thiadiazol-2-yl)benzo(f)chromen-3-one]
% reduction of kcat at 50 μM: ~ 70%
